21 compounds from US9108944B2, “Androgen receptor modulators and uses thereof” (ARAGON PHARMACEUTICALS, INC., priority 2010, dated 2015) can be followed below.

In assay [1] the target is T1, AR-VP16 (Homo sapiens, UniProt P10275).
T1 sequence (P10275 560-920 limits assumed): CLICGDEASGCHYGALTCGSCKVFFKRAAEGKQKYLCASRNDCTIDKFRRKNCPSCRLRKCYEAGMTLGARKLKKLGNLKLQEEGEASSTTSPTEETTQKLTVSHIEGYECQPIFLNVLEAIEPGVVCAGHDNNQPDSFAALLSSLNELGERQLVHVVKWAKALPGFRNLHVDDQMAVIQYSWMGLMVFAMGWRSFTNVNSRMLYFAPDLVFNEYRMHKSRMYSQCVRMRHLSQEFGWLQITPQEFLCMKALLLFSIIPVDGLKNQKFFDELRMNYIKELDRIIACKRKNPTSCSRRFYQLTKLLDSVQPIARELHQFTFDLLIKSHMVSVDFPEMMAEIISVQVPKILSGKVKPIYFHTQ
Description: AR-VP16 DNA Binding Assay, agonist mode (HepG2 cells). It is filed as cell-based. Particulars: Emax >20x DMSO control = agonist.

For assay [2], the target named is T1, AR-VP16. The assay is described as follows: AR-VP16 DNA Binding Assay, antagonist mode (HepG2 cells, 0.1 nM R1881). The format is cell-based. The method in brief: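 HepG2 cells transiently transfected with AR-VP16 (Lipofectin), incubated overnight, then treated with compound in RPMI with charcoal-stripped serum. Antagonist mode adds R1881 at 0.1 nM final. Cells lysed after 48 h incubation for read-out.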

For the compound `Cc1ccc(N2C(=S)N(c3cnc(C#N)c(C(F)(F)F)c3)C(=O)C23CCC3)cc1F` [Compound 49, 5-(5-(3-Fluoro-4-methylphenyl)-8-oxo-6-thioxo-5,7-diazaspiro[3.4]octan-7-yl)-3-(trifluoromethyl)picolinonitrile], the “ARVP16 DNA Binding Assay (Agonist mode): Agonist?” value (from here on “ARVP16 DNA Binding Assay”) in assay [1] is reported as “No (Agonist defined as a compound whose Emax in the ARVP16 DNA Binding Assay (Agonist mode) is >20x DMSO control)”. Besides, in assay [2], the IC50 is < 1 µM.
Take `Cc1ccc(N2C(=S)N(c3cnc(C#N)c(C(F)(F)F)c3)C(=O)C23CCC3)c(F)c1` [Compound 50, 5-(5-(2-Fluoro-4-methylphenyl)-8-oxo-6-thioxo-5,7-diazaspiro[3.4]octan-7-yl)-3-(trifluoromethyl)picolinonitrile]: the “ARVP16 DNA Binding Assay” value in assay [1] is on record as “No (Agonist defined as a compound whose Emax in the ARVP16 DNA Binding Assay (Agonist mode) is >20x DMSO control)”. Besides, in assay [2], the IC50 was < 1 µM.
As for `N#Cc1ncc(N2C(=O)C3(CCC3)N(c3ccc4cnccc4c3)C2=S)cc1C(F)(F)F` [Compound 51, 5-(5-(Isoquinolin-6-yl)-8-oxo-6-thioxo-5,7-diazaspiro[3.4]octan-7-yl)-3-(trifluoromethyl)picolinonitrile], the “ARVP16 DNA Binding Assay” value in assay [1] was “No (Agonist defined as a compound whose Emax in the ARVP16 DNA Binding Assay (Agonist mode) is >20x DMSO control)”. In assay [2], the IC50 is < 1 µM.
On to `Cc1cc(N2C(=O)C3(CCC3)N(c3ccc(O)c(F)c3)C2=S)cnc1C#N` [Compound 54, 5-(5-(3-Fluoro-4-hydroxyphenyl)-8-oxo-6-thioxo-5,7-diazaspiro[3.4]octan-7-yl)-3-methylpicolinonitrile], for which, in assay [1], the “ARVP16 DNA Binding Assay” value was “No (Agonist defined as a compound whose Emax in the ARVP16 DNA Binding Assay (Agonist mode) is >20x DMSO control)”. Also, in assay [2], the IC50 was > 1 µM.
Consider `Cc1ccc(N2C(=S)N(c3cnc(C#N)c(Cl)c3)C(=O)C23CCC3)cc1` [Compound 57, 3-Chloro-5-(8-oxo-6-thioxo-5-(p-tolyl)-5,7-diazaspiro[3.4]octan-7-yl)picolinonitrile], for which the “ARVP16 DNA Binding Assay” value in assay [1] is on record as “No (Agonist defined as a compound whose Emax in the ARVP16 DNA Binding Assay (Agonist mode) is >20x DMSO control)”. Moreover, the IC50 in assay [2] is < 1 µM.
`COc1cc(N2C(=O)C3(CCC3)N(c3ccc(C)cc3)C2=S)cnc1C#N` [Compound 59, 3-Methoxy-5-(8-oxo-6-thioxo-5-(p-tolyl)-5,7-diazaspiro[3.4]octan-7-yl)picolinonitrile]: the “ARVP16 DNA Binding Assay” value in assay [1] is on record as “No (Agonist defined as a compound whose Emax in the ARVP16 DNA Binding Assay (Agonist mode) is >20x DMSO control)”. Moreover, the IC50 in assay [2] is < 1 µM.
For `CNC(=O)c1ccc(N2C(=S)N(c3cnc(C#N)c(OC)c3)C(=O)C23CCC3)cc1F` [Compound 60, 4-(7-(6-Cyano-5-methoxypyridin-3-yl)-8-oxo-6-thioxo-5,7-diazaspiro[3.4]octan-5-yl)-2-fluoro-N-methylbenzamide], the “ARVP16 DNA Binding Assay” value in assay [1] is recorded as “Yes (Agonist defined as a compound whose Emax in the ARVP16 DNA Binding Assay (Agonist mode) is >20x DMSO control)”. Also, in assay [2], the IC50 was < 1 µM.
For `Cc1ccc(N2C(=S)N(c3cnc(-c4cccnc4)c(C(F)(F)F)c3)C(=O)C23CCC3)cc1` [Compound 61, 6-Thioxo-5-(p-tolyl)-7-(3-(trifluoromethyl)-[2,3′-bipyridin]-5-yl)-5,7-diazaspiro[3.4]octan-8-one], the “ARVP16 DNA Binding Assay” value in assay [1] is reported as “No (Agonist defined as a compound whose Emax in the ARVP16 DNA Binding Assay (Agonist mode) is >20x DMSO control)”. In addition, the IC50 in assay [2] was > 1 µM.
Take `Cc1ccc(N2C(=S)N(c3ccc4nccn4c3)C(=O)C23CCC3)cc1` [Compound 62, 7-(Imidazo[1,2-a]pyridin-6-yl)-6-thioxo-5-(p-tolyl)-5,7-diazaspiro[3.4]octan-8-one]: the “ARVP16 DNA Binding Assay” value in assay [1] was “No (Agonist defined as a compound whose Emax in the ARVP16 DNA Binding Assay (Agonist mode) is >20x DMSO control)”. In addition, the IC50 in assay [2] was > 1 µM.
In the case of `Cc1ccc(N2C(=S)N(c3cnc(C#N)c4ccccc34)C(=O)C23CCC3)cc1` [Compound 65, 4-(8-Oxo-6-thioxo-5-(p-tolyl)-5,7-diazaspiro[3.4]octan-7-yl)isoquinoline-1-carbonitrile], the “ARVP16 DNA Binding Assay” value in assay [1] was “Yes (Agonist defined as a compound whose Emax in the ARVP16 DNA Binding Assay (Agonist mode) is >20x DMSO control)”. Besides, the IC50 in assay [2] is < 1 µM.
As to `N#Cc1ncc(N2C(=O)C3(CCC3)N(c3ccccc3CO)C2=S)cc1C(F)(F)F` [Compound 68, 5-(5-(2-(Hydroxymethyl)phenyl)-8-oxo-6-thioxo-5,7-diazaspiro[3.4]octan-7-yl)-3-(trifluoromethyl)picolinonitrile], the “ARVP16 DNA Binding Assay” value in assay [1] was “No (Agonist defined as a compound whose Emax in the ARVP16 DNA Binding Assay (Agonist mode) is >20x DMSO control)”. Also, the IC50 in assay [2] was > 1 µM.
`N#Cc1ncc(N2C(=O)C3(CCC3)N(c3ccc(CO)cc3)C2=S)cc1C(F)(F)F` [Compound 69, 5-(5-(4-(Hydroxymethyl)phenyl)-8-oxo-6-thioxo-5,7-diazaspiro[3.4]octan-7-yl)-3-(trifluoromethyl)picolinonitrile]: the “ARVP16 DNA Binding Assay” value in assay [1] is given as “No (Agonist defined as a compound whose Emax in the ARVP16 DNA Binding Assay (Agonist mode) is >20x DMSO control)”. Moreover, the half-maximal inhibitory concentration (IC50) in assay [2] is < 1 µM.
Consider `COC(=O)c1ccc(N2C(=S)N(c3cnc(C#N)c(C)c3)C(=O)C23CCC3)c(F)c1` [Compound 71, Methyl 4-(7-(6-cyano-5-methylpyridin-3-yl)-8-oxo-6-thioxo-5,7-diazaspiro[3.4]octan-5-yl)-3-fluorobenzoate], for which the “ARVP16 DNA Binding Assay” value in assay [1] is “No (Agonist defined as a compound whose Emax in the ARVP16 DNA Binding Assay (Agonist mode) is >20x DMSO control)”. Moreover, the IC50 in assay [2] was > 1 µM.
In the case of `N#Cc1ncc(N2C(=O)C3(CCC3)N(c3cccc(F)c3F)C2=S)cc1C(F)(F)F` [Compound 72, 5-(5-(2,3-Difluorophenyl)-8-oxo-6-thioxo-5,7-diazaspiro[3.4]octan-7-yl)-3-(trifluoromethyl)picolinonitrile], the “ARVP16 DNA Binding Assay” value in assay [1] was “Yes (Agonist defined as a compound whose Emax in the ARVP16 DNA Binding Assay (Agonist mode) is >20x DMSO control)”. Further, in assay [2], the IC50 was < 1 µM.
On to `N#Cc1ncc(N2C(=O)C3(CCC3)N(c3c(F)cccc3F)C2=S)cc1C(F)(F)F` [Compound 73, 5-(5-(2,6-Difluorophenyl)-8-oxo-6-thioxo-5,7-diazaspiro[3.4]octan-7-yl)-3-(trifluoromethyl)picolinonitrile], for which, in assay [1], the “ARVP16 DNA Binding Assay” value is “Yes (Agonist defined as a compound whose Emax in the ARVP16 DNA Binding Assay (Agonist mode) is >20x DMSO control)”. The IC50 in assay [2] was < 1 µM.
The corresponding values for `N#Cc1ncc(N2C(=O)C3(CCC3)N(c3ccc(F)cc3F)C2=S)cc1C(F)(F)F` [Compound 76, 5-(5-(2,4-Difluorophenyl)-8-oxo-6-thioxo-5,7-diazaspiro[3.4]octan-7-yl)-3-(trifluoromethyl)picolinonitrile] are “Yes (Agonist defined as a compound whose Emax in the ARVP16 DNA Binding Assay (Agonist mode) is >20x DMSO control)” and < 1 µM.
The corresponding values for `Cc1cc(N2C(=O)C3(CCC3)N(c3ccc(O)cc3)C2=S)cnc1C#N` [Compound 77, 5-(5-(4-hydroxyphenyl)-8-oxo-6-thioxo-5,7-diazaspiro[3.4]octan-7-yl)-3-methylpicolinonitrile] are “No (Agonist defined as a compound whose Emax in the ARVP16 DNA Binding Assay (Agonist mode) is >20x DMSO control)” and > 1 µM.
On to `CNC(=O)c1ccc(N2C(=S)N(c3cnc(C#N)c(C)c3)C(=O)C23CCC3)cc1` [Compound 78, 4-(7-(6-Cyano-5-methylpyridin-3-yl)-8-oxo-6-thioxo-5,7-diazaspiro[3.4]octan-5-yl)-N-methylbenzamide], for which the “ARVP16 DNA Binding Assay” value in assay [1] is given as “No (Agonist defined as a compound whose Emax in the ARVP16 DNA Binding Assay (Agonist mode) is >20x DMSO control)”. Further, the IC50 in assay [2] was > 1 µM.
Consider `N#Cc1ncc(N2C(=O)C3(CCC3)N(c3ccc(S(N)(=O)=O)cc3)C2=S)cc1C(F)(F)F` [Compound 81, 4-(7-(6-cyano-5-(trifluoromethyl)pyridin-3-yl)-8-oxo-6-thioxo-5,7-diazaspiro-[3.4]octan-5-yl)benzenesulfonamide], for which the “ARVP16 DNA Binding Assay” value in assay [1] is recorded as “No (Agonist defined as a compound whose Emax in the ARVP16 DNA Binding Assay (Agonist mode) is >20x DMSO control)”. For the same compound, the IC50 in assay [2] is > 1 µM.
As to `CNC(=O)c1ccc(N2C(=S)N(c3ccc(C#N)n4nccc34)C(=O)C23CCC3)cc1F` [Compound 83, 4-(7-(7-Cyanopyrazolo[1,5-a]pyridin-4-yl)-8-oxo-6-thioxo-5,7-diazaspiro[3.4]octan-5-yl)-2-fluoro-N-methylbenzamide], in assay [1], the “ARVP16 DNA Binding Assay” value was “No (Agonist defined as a compound whose Emax in the ARVP16 DNA Binding Assay (Agonist mode) is >20x DMSO control)”. For the same compound, the IC50 in assay [2] was > 1 µM.
For `Cc1ccc(CN2C(=S)N(c3cnc(C#N)c(C(F)(F)F)c3)C(=O)C23CCC3)cc1` [Compound 84, 5-(5-(4-Methylbenzyl)-8-oxo-6-thioxo-5,7-diazaspiro[3.4]octan-7-yl)-3-(trifluoromethyl)picolinonitrile], in assay [1], the “ARVP16 DNA Binding Assay” value is recorded as “Yes (Agonist defined as a compound whose Emax in the ARVP16 DNA Binding Assay (Agonist mode) is >20x DMSO control)”. For the same compound, in assay [2], the half-maximal inhibitory concentration (IC50) is < 1 µM.
